From patent publication US9763944B2 (Novartis AG, priority 2008, dated 2017)

Settings: GIST patients, 400 or 600 mg/day oral
Description: METHODS: The IM plasma levels were analyzed in a subset of patients (n=73) for whom PK data on day 1 and at steady state (Day 29) was available (n=34 and 39 for 400 and 600 mg/day, respectively). The effect of patients demographics and blood chemistry parameters on IM PK was evaluated using a population PK approach. A relationship between IM plasma exposure and clinical outcome was explored by grouping patients into quartiles according to IM trough levels (Cmin). The clinical outcome parameters evaluated include overall objective responses (OOR=CR+PR+SD), time to progression (TTP), and KIT mutations.

Cc1ccc(NC(=O)c2ccc(CN3CCN(C)CC3)cc2)cc1Nc1nccc(-c2cccnc2)n1 [imatinib, N-{5-[4-(4-methyl-piperazino-methyl)-benzoylamido]-2-methylphenyl}-4-(3-pyridyl)-2-pyrimidine-amine]
inter-patient variability in IM exposure: large inter-patient variability
